SMILES strings stand for the structures. Some results are limits rather than exact numbers.

In the assay the target is T1, TDO2 (Homo sapiens, UniProt P48775).
T1 construct: decreased levels of NFK in SW48 cells (high TDO expressing cells)
T1 sequence (P48775 whole entry): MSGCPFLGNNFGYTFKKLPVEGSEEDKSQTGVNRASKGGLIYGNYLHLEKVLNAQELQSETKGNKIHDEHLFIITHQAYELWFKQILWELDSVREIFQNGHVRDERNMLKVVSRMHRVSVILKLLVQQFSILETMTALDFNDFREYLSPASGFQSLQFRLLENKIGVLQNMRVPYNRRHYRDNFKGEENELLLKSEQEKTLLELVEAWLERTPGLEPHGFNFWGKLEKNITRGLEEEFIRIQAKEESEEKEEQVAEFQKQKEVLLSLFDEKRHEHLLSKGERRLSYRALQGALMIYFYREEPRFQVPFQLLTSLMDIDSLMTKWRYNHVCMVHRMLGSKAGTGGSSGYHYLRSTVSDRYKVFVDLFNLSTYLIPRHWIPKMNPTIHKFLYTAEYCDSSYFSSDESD
The experiment in a line: TDO2 cell assay (NFK GreenScreen, SW48 cells). It counts as cell-based. The conditions noted are these: SW48 cells (high TDO expressing), 200 uM tryptophan, 24 hours; Table 3; read-out: TDO2 Cell Fluor EC50.
Take `N#Cc1ccc2c(c1)CCC(C1c3ccccc3-c3cncn31)C2O` (single isomer, unassigned) [Example 62c]: the EC50 was 6600 nM.

Take `NC(=O)c1ccc2c(n1)CCC(C1c3ccccc3-c3cncn31)C2O` (single isomer, unassigned) [Example 104c]: the half-maximal effective concentration (EC50) amounted to 23000 nM.

Regarding `OC1CCOCC1C1c2c(Cl)cccc2-c2cncn21` (single isomer, unassigned) [Example 69c], the EC50 is 11000 nM.

In the case of `O[C@@H]1c2ncccc2CC[C@H]1[C@H]1c2ccccc2-c2cncn21` (single isomer, unassigned) [Example 126b], the EC50 was determined as 83 nM.

Consider `CC1(C)C[C@@H](O)[C@H]1[C@H]1c2ccccc2-c2cncn21` (single isomer, unassigned) [Example 22f], for which the half-maximal effective concentration (EC50) came out at 1100 nM.

Consider `O[C@@H]1CN(C2COC2)CC[C@H]1[C@H]1c2ccccc2-c2cncn21` [Example 103, (3S,4S)-4-((S)-5H-imidazo[5,1-a]isoindol-5-yl)-1-(oxetan-3-yl)piperidin-3-ol], for which the EC50 is 12000 nM.

For `N[C@@H]1COC[C@@H]1[C@@H]1c2ccccc2-c2cncn21` [Example 32a, (3S,4S)-4-[(5R)-5H-imidazo[4,3-a]isoindol-5-yl]oxolan-3-amine], the EC50 is more than 25000 nM.

With `O[C@H]1c2ccncc2CC[C@@H]1[C@@H]1c2ccccc2-c2cncn21` (single isomer, unassigned) [Example 08b], the EC50 stood at 600 nM.

Regarding `NS(=O)(=O)N1CCC2(CCC(C3c4ccccc4-c4cncn43)C2O)CC1` (single isomer, unassigned) [Example 182a], the half-maximal effective concentration (EC50) was more than 25000 nM.

Take `CC1(C)CCC(C2c3ccccc3-c3cncn32)C1O` (single isomer, unassigned) [Example 23c]: the EC50 came out at 81 nM.

With `O[C@H]1COCC[C@@H]1[C@@H]1c2c(F)cccc2-c2cncn21` [Example 120b, (3R,4R)-4-((R)-6-fluoro-5H-imidazo[5,1-a]isoindol-5-yl)tetrahydro-2H-pyran-3-ol], the EC50 was more than 25000 nM.

As to `OC1c2cncn2CCC1C1c2ccccc2-c2cncn21` (single isomer, unassigned) [Example 07b], the EC50 was more than 25000 nM.

Regarding `OC1(C2c3ccccc3-c3cncn32)CC(CF)(CF)C1` (racemic) [Example 54, 3,3-bis(fluoromethyl)-1-(5H-imidazo[5,1-a]isoindol-5-yl)cyclobutan-1-ol], the EC50 was determined as 3400 nM.

`NS(=O)(=O)c1ccc2c(c1)C(O)C(C1c3ccccc3-c3cncn31)CC2` (single isomer, unassigned) [Example 105e]: the half-maximal effective concentration (EC50) was determined as 460 nM.

With `CC(C)(O)C1c2ccccc2-c2cncn21` (racemic) [Example 44, 2-(5H-imidazo[5,1-a]isoindol-5-yl)propan-2-ol], the EC50 is 6840 nM.

On to `NC(=O)c1ccc2c(c1)CC[C@@H]([C@H]1c3ccccc3-c3cncn31)[C@H]2O` [Example 60f, (5R,6S)-5-hydroxy-6-((S)-5H-imidazo[5,1-a]isoindol-5-yl)-5,6,7,8-tetrahydronaphthalene-2-carboxamide], for which the EC50 was 57 nM.

Turning to `CC(C)(C)OC(=O)N1CC2(CC(C3c4ccccc4-c4cncn43)C2O)C1` (single isomer, unassigned) [Example 41a, tert-butyl 7-hydroxy-6-(5H-imidazo[1,5-b]isoindol-5-yl)-2-azaspiro[3.3]heptane-2-carboxylate], the EC50 was more than 25000 nM.

Consider `NS(=O)(=O)N1CC[C@@H]([C@H]2c3ccccc3-c3cncn32)[C@H](O)C1` [Example 39a, (3S,4S)-3-hydroxy-4-((S)-5H-imidazo[5,1-a]isoindol-5-yl)piperidine-1-sulfonamide], for which the concentration giving a half-maximal response (EC50) is more than 25000 nM.

Consider `OC1COCC1C1c2ccc(F)cc2-c2cncn21` (single isomer, unassigned) [Example 30a], for which the EC50 was 260 nM.

As to `O[C@@H]1CCOC[C@H]1[C@H]1c2ccccc2-c2cncn21` [Example 05b, (3R,4R)-3-((S)-5H-imidazo[5,1-a]isoindol-5-yl)-tetrahydro-2H-pyran-4-ol], the EC50 turned out to be 210 nM.

In the case of `CC(C)(C)OC(=O)N1CCC(C2c3ccccc3-c3cncn32)C(O)C1` (single isomer, unassigned) [Example 10d, tert-butyl 3-hydroxy-4-(5H-imidazo[5,1-a]isoindol-5-yl)piperidine-1-carboxylate], the half-maximal effective concentration (EC50) is more than 25000 nM.

Consider `OC1CC2(CCC2)C1C1c2ccccc2-c2cncn21` (single isomer, unassigned) [Example 67e], for which the concentration for a half-maximal effect (EC50) was found to be 44 nM.

Take `N#Cc1cc2n(n1)CCC(C1c3ccccc3-c3cncn31)C2O` (single isomer, unassigned) [Example 174b]: the EC50 was found to be 150 nM.

In the case of `Cn1cc2c(n1)CCC(C1c3ccccc3-c3cncn31)C2O` (single isomer, unassigned) [Example 130a], the EC50 amounted to 1500 nM.

Turning to `NC(=O)c1ccc2c(c1)C(O)C(C1c3ccccc3-c3cncn31)CC2` (single isomer, unassigned) [Example 122d], the 50% effective concentration (EC50) is 370 nM.

Take `N#Cc1cnn2c1[C@@H](O)[C@@H]([C@H]1c3ccccc3-c3cncn31)CC2` (single isomer, unassigned) [Example 156d]: the half-maximal effective concentration (EC50) is more than 25000 nM.

`CC(=O)N1CCC(C2c3ccccc3-c3cncn32)C(O)C1` (single isomer, unassigned) [Example 09a, 1-(3-hydroxy-4-(5H-imidazo[5,1-a]isoindol-5-yl)piperidin-1-yl)ethan-1-one]: the concentration giving a half-maximal response (EC50) was more than 25000 nM.

As to `O[C@H]1c2cnccc2CC[C@@H]1[C@@H]1c2ccccc2-c2cncn21` (single isomer, unassigned) [Example 04f], the EC50 came to 2300 nM.

Turning to `Nc1ccc2c(n1)CCC(C1c3ccccc3-c3cncn31)C2O` (single isomer, unassigned) [Example 121b], the 50% effective concentration (EC50) was more than 25000 nM.

With `O[C@H]1CC[C@H]1[C@H]1c2ccccc2-c2cncn21` [Example 01b, (1S,2S)-2-((S)-5H-imidazo[5,1-a]isoindol-5-yl)cyclobutan-1-ol], the EC50 came to 150 nM.

`O[C@@H]1c2cnccc2CC[C@H]1[C@H]1c2ccccc2-c2cncn21` (single isomer, unassigned) [Example 04h]: the EC50 came out at 130 nM.

On to `NS(=O)(=O)c1ccc2c(c1)CCC(C1c3ccccc3-c3cncn31)C2O` (single isomer, unassigned) [Example 100a], for which the EC50 came out at 120 nM.

For `Nc1ccc2c(n1)CCC(C1c3ccccc3-c3cncn31)C2O` (single isomer, unassigned) [Example 121g], the half-maximal effective concentration (EC50) is more than 25000 nM.

On to `OC1COCCC1C1c2cc(F)ccc2-c2cncn21` (single isomer, unassigned) [Example 75-1c], for which the EC50 was 110 nM.

Regarding `Nc1ccc2c(n1)CCC(C1c3ccccc3-c3cncn31)C2O` (single isomer, unassigned) [Example 121d], the concentration for a half-maximal effect (EC50) was 17000 nM.

Consider `O=c1cccc2n1CCC(C1c3ccccc3-c3cncn31)C2O` (single isomer, unassigned) [Example 29f, 1-hydroxy-2-(5H-imidazo[5,1-a]isoindol-5-yl)-3,4-dihydro-1H-quinolizin-6(2H)-one], for which the EC50 was more than 25000 nM.

In the case of `OC1CCCCC1C1c2ccc(F)cc2-c2cncn21` (single isomer, unassigned) [Example 25c], the EC50 was 20000 nM.

For `N#Cc1ccc2c(c1)[C@H](O)[C@@H]([C@@H]1c3ccccc3-c3cncn31)CC2` [Example 113a, (7R,8R)-8-hydroxy-7-((R)-5H-imidazo[5,1-a]isoindol-5-yl)-5,6,7,8-tetrahydronaphthalene-2-carbonitrile], the EC50 came to 1000 nM.

Regarding `OC1COCCC1C1c2ccc(F)cc2-c2cncn21` (single isomer, unassigned) [Example 33a], the half-maximal effective concentration (EC50) is more than 25000 nM.

Take `OC1COCCC1C1c2c(Cl)cccc2-c2cncn21` (single isomer, unassigned) [Example 69-1a]: the EC50 was more than 25000 nM.

Turning to `Cc1cc2c(cn1)C(O)C(C1c3ccccc3-c3cncn31)C2` (single isomer, unassigned) [Example 59d], the concentration for a half-maximal effect (EC50) is more than 25000 nM.

As to `CS(=O)(=O)c1ccc2c(c1)OCC(C1c3ccccc3-c3cncn31)C2O` (single isomer, unassigned) [Example 91f], the EC50 came to 810 nM.

As to `N#Cc1cnn2c1C(O)C(C1c3ccccc3-c3cncn31)CC2` (single isomer, unassigned) [Example 156e], the concentration giving a half-maximal response (EC50) amounted to 250 nM.

`OC1C(C2c3ccc(F)cc3-c3cncn32)CC12CCOCC2` (single isomer, unassigned) [Example 109d]: the EC50 turned out to be 3700 nM.

With `NS(=O)(=O)N1CC(O)C(C2c3ccccc3-c3cncn32)C1` (single isomer, unassigned) [Example 28c], the concentration giving a half-maximal response (EC50) is more than 25000 nM.

Turning to `CC1(C)OC(C)(C)C(C2c3ccccc3-c3cncn32)C1O` (single isomer, unassigned) [Example 84e], the concentration for a half-maximal effect (EC50) was more than 25000 nM.

Turning to `O[C@@H]1CCOC[C@H]1[C@@H]1c2ccccc2-c2cncn21` [Example 05c, (3R,4R)-3-((R)-5H-imidazo[5,1-a]isoindol-5-yl)-tetrahydro-2H-pyran-4-ol], the concentration for a half-maximal effect (EC50) is more than 25000 nM.

For `CCS(=O)(=O)N1CCC(O)C(C2c3ccccc3-c3cncn32)C1` (single isomer, unassigned) [Example 15c], the 50% effective concentration (EC50) was found to be 7500 nM.

Consider `O=c1cccc2n1CCC(C1c3ccccc3-c3cncn31)C2O` (single isomer, unassigned) [Example 29b, 1-hydroxy-2-(5H-imidazo[5,1-a]isoindol-5-yl)-3,4-dihydro-1H-quinolizin-6(2H)-one], for which the half-maximal effective concentration (EC50) is 670 nM.

As for `OC1(C2c3ccccc3-c3cncn32)CCC(F)(F)CC1` (racemic) [Example 53, 4,4-difluoro-1-(5H-imidazo[5,1-a]isoindol-5-yl)cyclohexan-1-ol], the EC50 came out at 170 nM.

Take `O[C@H]1CCOC[C@@H]1[C@@H]1c2ccccc2-c2cncn21` [Example 05a, (3S,4S)-3-((R)-5H-imidazo[5,1-a]isoindol-5-yl)-tetrahydro-2H-pyran-4-ol]: the EC50 amounted to 23000 nM.

For the origin of these results see patent US12583858B2 (Genentech, Inc., priority 2015, dated 2026).
